This is an account of results in patent US7612057B2, “Supramolecular complexes as photoactivated DNA cleavage agents” (Virginia Tech Intellectual Properties, Inc., priority 2002, dated 2009).

Data set [1] deals with pUC18 plasmid. Nature of the data set: Photocleavage of pUC18 plasmid DNA assayed by agarose gel electrophoresis. It is filed as biochemical. Here is the method:
FIG. 10A-C. (a) Schematic representations of imaged agarose gel showing the photocleavage of pUC18 plasmid by [{(bpy)2Ru(dpp)}2RhCl2]^5+ in the absence of molecular oxygen. Lane 1 λ molecular weight standard, lanes 2 and 3 plasmid controls, lanes 4 and 6 plasmid incubated at 37° C. (2 h) in the presence of [(bpy)2Ru(dpp)]^2+ and [{(bpy)2Ru(dpp)}2RhCl2]^5+, respectively (1:5metal complex/base pair), lanes 5 and 7 plasmid irradiated at λ≧475 nm for 10 min in the presence of [(bpy)2Ru(dpp)]^2+ and [{(bpY)2Ru(dpp)}2RhCl2]^5+, respectively. (b) Lanes 1 and 2 plasmid controls, lanes 3 and 5 plasmid incubated at 37° C. (3 h) in the presence of [{(bpy)2Ru(bpm)}2RhCl2]^5+ and [{(bpy)2Ru(dpp)}2IrCl2]^5+, respectively, lanes 4 and 6 plasmid irradiated at λ≧475 nm for 10 min in the presence of [{(bpy)2Ru(bpm)}2RhCl2]^5+ and [{(bpy)2Ru(dpp)}2IrCl2]^5+, respectively. (c) Imaged agarose gel showing photocleavage of pBluescript plasmid in the absence of molecular oxygen by [(bpy)2Ru(dpp)RhCl2(dpp)Ru(bpy)2](PF6)5. Lane 1 is the λ molecular weight standard, lane 2 is the control linearized DNA (cut with HindIII) with no metal present, lane 3 is the control circular DNA with no metal present, lane 4 is a 1:5 metal complex/base pair mixture of the plasmid with the metal complex incubated at 37° C. (4 h), and lane 5 is a 1:5 metal complex/base pair mixture of the plasmid with the metal complex photolyzed at 520±5 nm for 4 h. All gels used 0.8% agarose, 90 mM Tris, and 90 mM boric acid buffer (pH=8.2, ionic strength=0.0043 M calculated using the Henderson-Hasselbalch equation).
A, DNA Photocleavage of pUC18 using [{(bpy)2Os(dpp)}2RhCl2](PF6)5:Lane 1 is the λ molecular weight standard, Lane 2 is a plasmid control, Lane 3 is a 1:5 metal complex/base pair mixture of the plasmid with the metal complex incubated at 37° C. for 20 minutes, Lane 4 is a 1:5 metal complex/base pair mixture of the plasmid with the metal complex photolyzed at >475 nm for 20 minutes.
C, DNA Photocleavage of pUC18 using [{(tpy)RuCl(bpm)}2RhCl2](PF6)3:Lane 1 is the λ molecular weight standard, Lane 2 is a plasmid control, Lane 3 is the plasmid alone photolyzed λ>475 nm for 15 mins, Lane 4 is a 1:5 metal complex/base pair mixture of the plasmid with the metal complex incubated at 37° C. for 15 minutes, Lane 5 is a 1:5 metal complex/base pair mixture of the plasmid with the metal complex photolyzed at >475 nm for 15 minutes.
pUC18 and pBluescript were used to probe pbotocleavage of DNA by gel electrophoresis.^14,26,41,42 pUC18 plasmid is 2686 bp (Bayou Biolabs). Irradiation used a 1000 W xenon arc lamp, a water IR filter, and a 475 nm cut off filter. Solutions were 3.5 μM in metal complex and 6.9 mM in phosphate buffer (pH=7) and allowed for ionic association of the cationic metal complexes with DNA. Dexoygenation was accomplished by bubbling with Ar for 30 min prior to the photolysis of the samples in an airtight cell blanketed with Ar.
The photocleavage of DNA by [{(bpy)2Ru(dpp)}2RhCl2]^5+ but not the monometallic ruthenium synthon illustrates the role of the supramolecular architecture, including Rh, on the desired photoreactivity. The cleavage product migrates slightly slower through the gel than native nicked plasmid, and similar results have been observed by Turro.^14 […]

In data set [2] the test system is pBluescript plasmid. Description: Photocleavage of pBluescript plasmid DNA assayed by agarose gel electrophoresis. The format is biochemical. How it is done:
FIG. 10A-C. […] Lane 1 λ molecular weight standard, lanes 2 and 3 plasmid controls, lanes 4 and 6 plasmid incubated at 37° C. […] (b) Lanes 1 and 2 plasmid controls, lanes 3 and 5 plasmid incubated at 37° C. […] Lane 1 is the λ molecular weight standard, lane 2 is the control linearized DNA (cut with HindIII) with no metal present, lane 3 is the control circular DNA with no metal present, lane 4 is a 1:5 metal complex/base pair mixture of the plasmid with the metal complex incubated at 37° C. (4 h), and lane 5 is a 1:5 metal complex/base pair mixture of the plasmid with the metal complex photolyzed at 520±5 nm for 4 h. All gels used 0.8% agarose, 90 mM Tris, and 90 mM boric acid buffer (pH=8.2, ionic strength=0.0043 M calculated using the Henderson-Hasselbalch equation).
B, DNA Photocleavage of pBluescript using [{(tpy)RuCl(dpp)}2RhCl2](PF6)3:Lane 1 is the λ molecular weight standard, Lane 2 is a plasmid control, Lane 3 is a 1:5 metal complex/base pair mixture of the plasmid with the metal complex incubated at 37° C. for 20 minutes, Lane 4 is a 1:5 metal complex/base pair mixture of the plasmid with the metal complex photolyzed at >475 nm for 20 minutes.
pUC18 and pBluescript were used to probe pbotocleavage of DNA by gel electrophoresis.^14,26,41,42 pUC18 plasmid is 2686 bp (Bayou Biolabs). Irradiation used a 1000 W xenon arc lamp, a water IR filter, and a 475 nm cut off filter. […]

Data set [3] concerns Vero cells. Nature of the data set: Photoinduced inhibition of Vero cell replication. It is filed as cell-based. Here is the method:
Photoinduced inhibition of Vero cell replication by the supramolecular complex [{(bpy)2Ru(dpp)}2RhCl2](PF6)5 was investigated. All experiments were carried out with 0.5 mg/mL of [{(bpy)2Ru(dpp)}2RhCl2](PF6)5 in MEM media, and the results are shown in FIG. 11A. This cell line normally replicates once each 24 hours.
The concentration dependence of photoinduced inhibition of cell replication by the supramolecular complex [{(bpy)2Ru(dpp)}2RhCl2]Cl5 is shown in FIG. 11B. […] This is likely due to photoinduced death of the irradiated cells.

For the molecule `F[P-](F)(F)(F)(F)F.F[P-](F)(F)(F)(F)F.F[P-](F)(F)(F)(F)F.F[P-](F)(F)(F)(F)F.F[P-](F)(F)(F)(F)F.[Cl-].[Cl-].[Os+2].[Os+2].[Rh+3].c1ccc(-c2ccccn2)nc1.c1ccc(-c2ccccn2)nc1.c1ccc(-c2ccccn2)nc1.c1ccc(-c2ccccn2)nc1.c1ccc(-c2nccnc2-c2ccccn2)nc1.c1ccc(-c2nccnc2-c2ccccn2)nc1` [[{(bpy)2Os(dpp)}2RhCl2](PF6)5, [(2,2′-bipyridine)2Os(2,3-bis(2-pyridyl)pyrazine)RhCl2(2,3-bis(2-pyridyl)pyrazine)Os(2,2′-bipyridine)2](PF6)5], the DNA photocleavage result in data set [1] (photolyzed at >475 nm for 20 minutes, 1:5 metal complex/base pair (FIG. 12A)) is given as “efficiently cleave DNA”.

For the molecule `F[P-](F)(F)(F)(F)F.F[P-](F)(F)(F)(F)F.F[P-](F)(F)(F)(F)F.F[P-](F)(F)(F)(F)F.F[P-](F)(F)(F)(F)F.[Cl-].[Cl-].[Rh+3].[Ru+2].[Ru+2].c1ccc(-c2ccccn2)nc1.c1ccc(-c2ccccn2)nc1.c1ccc(-c2ccccn2)nc1.c1ccc(-c2ccccn2)nc1.c1ccc(-c2nccnc2-c2ccccn2)nc1.c1ccc(-c2nccnc2-c2ccccn2)nc1` [[{(bpy)2Ru(dpp)}2RhCl2](PF6)5], the “DNA cleavage without irradiation” value in data set [1] (incubated at 37° C. for 2 h, 1:5 metal complex/base pair) is on record as “the plasmid DNA is not cleaved”. In data set [1] (irradiated λ≧475 nm for 10 min, absence of molecular oxygen, 1:5 metal complex/base pair, 3.5 μM complex, phosphate buffer pH 7), the “DNA photocleavage (supercoiled to nicked form)” value is given as “conversion of the supercoiled DNA to the nicked form is observed”. In addition, the DNA photocleavage result in data set [1] (irradiated λ≧475 nm, presence of molecular oxygen) was “also observed in the presence of molecular oxygen”; in data set [2] (presence of molecular oxygen), “also observed in the presence of molecular oxygen”. Moreover, in data set [3] (Vero cells, no illumination, 0.5 mg/mL), the “Toxicity to cells in the dark” value is recorded as “not toxic to cells in the dark”. Further, in data set [3] (incubated in the dark, without illumination, MEM media (FIG. 11A)), the “Vero cell replication, complex alone” value is given as “did not impact replication”. Also, in data set [3] (photolysis at λ>475 nm after incubation with 0.5 mg/mL complex in MEM media (FIG. 11A)), the “Photoinduced inhibition of Vero cell replication” value is “greatly inhibits cell replication”.

With `F[P-](F)(F)(F)(F)F.F[P-](F)(F)(F)(F)F.F[P-](F)(F)(F)(F)F.[Cl-].[Cl-].[Cl-].[Cl-].[Rh+3].[Ru+2].[Ru+2].c1ccc(-c2cccc(-c3ccccn3)n2)nc1.c1ccc(-c2cccc(-c3ccccn3)n2)nc1.c1ccc(-c2nccnc2-c2ccccn2)nc1.c1ccc(-c2nccnc2-c2ccccn2)nc1` [[{(tpy)RuCl(dpp)}2RhCl2](PF6)3, [(2,2′:6′,2″-terpyridine) RuCl(2,3-bis(2-pyridyl)pyrazine)RhCl2(2,3-bis(2-pyridyl)pyrazine)RuCl(2,2′:6′,2″-terpyridine)](PF6)3], the DNA photocleavage result in data set [2] (photolyzed at >475 nm for 20 minutes, 1:5 metal complex/base pair (FIG. 12B)) was “efficiently cleave DNA”.

With “[(2,2′:6′,2″-terpyridine)RuCl(2,2′-bipyridimidine)RhCl2(2,2′-bipyridimidine)RuCl(2,2′:6′,2″-terpyridine)](PF6)3 [[{(tpy)RuCl(bpm)}2RhCl2](PF6)3]”, the DNA photocleavage entry in data set [1] (photolyzed at >475 nm for 15 minutes, 1:5 metal complex/base pair (FIG. 12C)) was “efficiently cleave DNA”.
